From PubChem BioAssay AID1845200 (Molecular Pharmacology Branch, DTP, NCI, 2023)

Tested on: ASPS-1 complex tumor spheroids, viability
Test: Anticancer human tumor ASPS-1 cell line growth inhibition;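 note: spheroids exposed to agents for 7 days after 3 days of growth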;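 for viability, T/C: 100% = DMSO vehicle treated spheroids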
Conditions: for IC50: curve of first compound; for viability, T/C: stronger effect = lower value
How it was run: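 Single agents and combinations were tested on spheroids built from tumor cells plus HUVEC and hMSC, at half-log dilutions starting at or near clinical Cmax, else 10 microM; final DMSO 0.25% (v/v).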

[1] = second compound 0.003 µM, first compound 0.0316 µM
[2] = second compound 0.003 µM, first compound 0.1 µM
[3] = second compound 0.003 µM, first compound 0.316 µM
[4] = second compound 0.003 µM, first compound 1 µM
[5] = second compound 0.003 µM, first compound 3.16 µM
[6] = second compound 0.003 µM, first compound 10 µM
[7] = second compound 0.00949 µM, first compound 0.0316 µM
[8] = second compound 0.00949 µM, first compound 0.1 µM
[9] = second compound 0.00949 µM, first compound 0.316 µM
[10] = second compound 0.00949 µM, first compound 1 µM
[11] = second compound 0.00949 µM, first compound 3.16 µM
[12] = second compound 0.00949 µM, first compound 10 µM
[13] = second compound 0.03 µM, first compound 0.0316 µM
[14] = second compound 0.03 µM, first compound 0.1 µM
[15] = second compound 0.03 µM, first compound 0.316 µM
[16] = second compound 0.03 µM, first compound 1 µM
[17] = second compound 0.03 µM, first compound 3.16 µM
[18] = second compound 0.03 µM, first compound 10 µM
[19] = second compound 0.0949 µM, first compound 0.0316 µM
[20] = second compound 0.0949 µM, first compound 0.1 µM
[21] = second compound 0.0949 µM, first compound 0.316 µM
[22] = second compound 0.0949 µM, first compound 1 µM
[23] = second compound 0.0949 µM, first compound 3.16 µM
[24] = second compound 0.0949 µM, first compound 10 µM
[25] = second compound 0.3 µM, first compound 0.0316 µM
[26] = second compound 0.3 µM, first compound 0.1 µM
[27] = second compound 0.3 µM, first compound 0.316 µM
[28] = second compound 0.3 µM, first compound 1 µM
[29] = second compound 0.3 µM, first compound 3.16 µM
[30] = second compound 0.3 µM, first compound 10 µM

| SMILES | IC50 (second compound 0.003 µM) [µM] | IC50 (second compound 0.00949 µM) [µM] | IC50 (second compound 0.03 µM) [µM] | IC50 (second compound 0.0949 µM) [µM] | IC50 (second compound 0.3 µM) [µM] | viability, T/C [1] [%] | viability, T/C [2] [%] | viability, T/C [3] [%] | viability, T/C [4] [%] | viability, T/C [5] [%] | viability, T/C [6] [%] | viability, T/C [7] [%] | viability, T/C [8] [%] | viability, T/C [9] [%] | viability, T/C [10] [%] | viability, T/C [11] [%] | viability, T/C [12] [%] | viability, T/C [13] [%] | viability, T/C [14] [%] | viability, T/C [15] [%] | also measured |
| --- | --- | --- | --- | --- | --- | --- | --- | --- | --- | --- | --- | --- | --- | --- | --- | --- | --- | --- | --- | --- | --- |
| CC(C)n1c(=O)n(C)c2cnc3cc(F)c(-c4ccc(OCCCN5CCCCC5)nc4)cc3c21 + CC[C@@]1(O)C(=O)OCc2c1cc1n(c2=O)Cc2cc3c(CN(C)C)c(O)ccc3nc2-1 | 6.68 | 5.2 | 0.184 | 0.161 | 0.188 | 99.3 | 99.6 | 108 | 98 | 82.9 | 32.4 | 82.9 | 69.2 | 71 | 65.6 | 67 | 30.6 | 61.1 | 53 | 48 | viability, T/C [16]: 31.3%; viability, T/C [17]: 33.2%; viability, T/C [18]: 27.1%; viability, T/C [19]: 64.3%; viability, T/C [20]: 54.7%; viability, T/C [21]: 41.8%; viability, T/C [22]: 21.9%; viability, T/C [23]: 22.4%; viability, T/C [24]: 26.1%; viability, T/C [25]: 62.9%; viability, T/C [26]: 60.6%; viability, T/C [27]: 40.9%; viability, T/C [28]: 22%; viability, T/C [29]: 20.9%; viability, T/C [30]: 24.2% |
| CC1COCCN1c1cc(-c2ccnn2C)c2ccnc(-c3ccn[nH]3)c2n1 (stereo not given) + CC[C@@]1(O)C(=O)OCc2c1cc1n(c2=O)Cc2cc3c(CN(C)C)c(O)ccc3nc2-1 | 0.224 | 0.0608 | < 0.0316 | < 0.0316 | < 0.0316 | 73.9 | 59.1 | 46.2 | 44.5 | 47.8 | 43.5 | 56.9 | 48.7 | 39.9 | 40.1 | 46.8 | 42.3 | 38.7 | 35.1 | 35.8 | viability, T/C [16]: 39.6%; viability, T/C [17]: 42.1%; viability, T/C [18]: 42.5%; viability, T/C [19]: 26.7%; viability, T/C [20]: 26.5%; viability, T/C [21]: 28.7%; viability, T/C [22]: 34.1%; viability, T/C [23]: 41.9%; viability, T/C [24]: 36.4%; viability, T/C [25]: 23.3%; viability, T/C [26]: 23.2%; viability, T/C [27]: 23.5%; viability, T/C [28]: 33.8%; viability, T/C [29]: 44.6%; viability, T/C [30]: 38.6% |
| COc1cc(C)[nH]c(=O)c1CN1CCc2c(Cl)cc(C(OC)C3COC3)c(Cl)c2C1=O (stereo not given) + CC[C@@]1(O)C(=O)OCc2c1cc1n(c2=O)Cc2cc3c(CN(C)C)c(O)ccc3nc2-1 | > 10 | > 10 | > 10 | > 10 | > 10 | 107 | 111 | 99.3 | 98.7 | 99.9 | 101 | 112 | 110 | 107 | 98.9 | 98.9 | 98.8 | 84.6 | 89.1 | 88.8 | viability, T/C [16]: 87.2%; viability, T/C [17]: 91.3%; viability, T/C [18]: 82.8%; viability, T/C [19]: 61.8%; viability, T/C [20]: 61.7%; viability, T/C [21]: 60.2%; viability, T/C [22]: 62.7%; viability, T/C [23]: 58.4%; viability, T/C [24]: 59.3%; viability, T/C [25]: 69.7%; viability, T/C [26]: 64.8%; viability, T/C [27]: 69.2%; viability, T/C [28]: 64.9%; viability, T/C [29]: 64.2%; viability, T/C [30]: 65.7% |
| COc1ccc([C@@H](O)c2cc(-c3ncnc4cc(N5CCOCC5)ccc34)c(F)cc2Cl)nn1 + CC[C@@]1(O)C(=O)OCc2c1cc1n(c2=O)Cc2cc3c(CN(C)C)c(O)ccc3nc2-1 | 8.87 | 6.69 | 3.02 | 0.33 | 0.214 | 110 | 106 | 101 | 98.1 | 80.3 | 46.1 | 104 | 104 | 101 | 90.2 | 66.6 | 41.1 | 82 | 87.9 | 82.8 | viability, T/C [16]: 73.8%; viability, T/C [17]: 49.1%; viability, T/C [18]: 31.9%; viability, T/C [19]: 56.1%; viability, T/C [20]: 54.7%; viability, T/C [21]: 50.6%; viability, T/C [22]: 31.4%; viability, T/C [23]: 22.7%; viability, T/C [24]: 26.1%; viability, T/C [25]: 62.5%; viability, T/C [26]: 58.4%; viability, T/C [27]: 45.7%; viability, T/C [28]: 32.4%; viability, T/C [29]: 23.9%; viability, T/C [30]: 16.4% |
| [2H]c1nc(C)nc([2H])c1-c1cc(NC[C@@H](C)c2cccc3c(C(=O)NC)ccnc23)ncn1 + CC[C@@]1(O)C(=O)OCc2c1cc1n(c2=O)Cc2cc3c(CN(C)C)c(O)ccc3nc2-1 | > 10 | > 10 | > 10 | > 10 | > 10 | 111 | 113 | 110 | 107 | 107 | 104 | 112 | 106 | 107 | 108 | 97.8 | 100 | 103 | 101 | 97.8 | viability, T/C [16]: 91.3%; viability, T/C [17]: 94.6%; viability, T/C [18]: 97.4%; viability, T/C [19]: 67.8%; viability, T/C [20]: 75.8%; viability, T/C [21]: 67.8%; viability, T/C [22]: 66.2%; viability, T/C [23]: 68%; viability, T/C [24]: 68.4%; viability, T/C [25]: 80.2%; viability, T/C [26]: 72.8%; viability, T/C [27]: 77.1%; viability, T/C [28]: 71.4%; viability, T/C [29]: 74.8%; viability, T/C [30]: 66.6% |
